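Grown in 96-well plates, cells were treated for 48 hours with each compound at five concentrations. Insufficient inhibition: endpoint recorded as highest concentration tested. The concentration for 50% growth inhibition is given as GI50. TGI denotes the concentration required for complete inhibition of growth.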
Columns and labels:
Assay in all cases: NCI-60 cell line screen, 48 h
NCI-H23 lung = test system: NCI-H23 lung
HCC-2998 colon = test system: HCC-2998 colon
HOP-92 NSCLC = test system: HOP-92 NSCLC
HCT-116 colon = test system: HCT-116 colon
LXFL 529 NSCLC = test system: LXFL 529 NSCLC
NCI-H460 lung = test system: NCI-H460 lung
COLO 205 colon = test system: COLO 205 colon
SK-OV-3 ovarian = test system: SK-OV-3 ovarian
HL-60(TB) leukemia = test system: HL-60(TB) leukemia
OVCAR-4 ovarian = test system: OVCAR-4 ovarian
UACC-62 melanoma = test system: UACC-62 melanoma
A498 renal = test system: A498 renal
SW-620 colon = test system: SW-620 colon
LOX IMVI melanoma = test system: LOX IMVI melanoma
M14 melanoma = test system: M14 melanoma
SNB-75 CNS = test system: SNB-75 CNS
SNB-19 CNS = test system: SNB-19 CNS
RPMI-8226 leukemia = test system: RPMI-8226 leukemia
NCI-H522 lung = test system: NCI-H522 lung
KM12 colon = test system: KM12 colon
UACC-257 melanoma = test system: UACC-257 melanoma
DMS 273 small cell lung = test system: DMS 273 small cell lung
SNB-78 CNS = test system: SNB-78 CNS
CCRF-CEM leukemia = test system: CCRF-CEM leukemia
UO-31 renal = test system: UO-31 renal
U251 CNS = test system: U251 CNS
M19-MEL melanoma = test system: M19-MEL melanoma
786-0 renal = test system: 786-0 renal
SK-MEL-28 melanoma = test system: SK-MEL-28 melanoma
RXF 393 renal = test system: RXF 393 renal
DMS 114 small cell lung = test system: DMS 114 small cell lung
SF-539 CNS = test system: SF-539 CNS
SK-MEL-2 melanoma = test system: SK-MEL-2 melanoma
TK-10 renal = test system: TK-10 renal
HCT-15 colon = test system: HCT-15 colon
HT29 colon = test system: HT29 colon
EKVX NSCLC = test system: EKVX NSCLC
SF-268 CNS = test system: SF-268 CNS
A549 NSCLC = test system: A549 NSCLC
XF 498 CNS = test system: XF 498 CNS
NCI-H226 lung = test system: NCI-H226 lung
MOLT-4 leukemia = test system: MOLT-4 leukemia
SN12C renal = test system: SN12C renal
MALME-3M melanoma = test system: MALME-3M melanoma
CAKI-1 renal = test system: CAKI-1 renal
KM20L2 colon = test system: KM20L2 colon
OVCAR-8 ovarian = test system: OVCAR-8 ovarian
OVCAR-5 ovarian = test system: OVCAR-5 ovarian
SK-MEL-5 melanoma = test system: SK-MEL-5 melanoma
ACHN renal = test system: ACHN renal
HOP-62 NSCLC = test system: HOP-62 NSCLC
K-562 leukemia = test system: K-562 leukemia
IGROV1 ovarian = test system: IGROV1 ovarian
OVCAR-3 ovarian = test system: OVCAR-3 ovarian
DLD-1 colon = test system: DLD-1 colon
SF-295 CNS = test system: SF-295 CNS

Which GI50 (NCI-H23 lung) does the source give for `CCCCCCC[CH2][Sn]([Cl])([Cl])[CH2]CCCCCCC` here?
The GI50 was 6.84 µM.

What about the TGI (NCI-H23 lung) of the same molecule?
Its TGI is 18.8 µM.

What about the GI50 (HCC-2998 colon) of the same molecule?
Its GI50 is 4.23 µM.

And the TGI (HCC-2998 colon)?
The TGI was 17 µM.

And the GI50 (HOP-92 NSCLC)?
Its GI50 is 5.27 µM.

What about the TGI (HOP-92 NSCLC) of the same molecule?
Its TGI is 18.4 µM.

What about the GI50 (HCT-116 colon) of the same molecule?
The GI50 was 3.66 µM.

What about the TGI (HCT-116 colon) of the same molecule?
The TGI was 15.3 µM.

What about the GI50 (LXFL 529 NSCLC) of the same molecule?
The GI50 was 3.05 µM.

What about the TGI (LXFL 529 NSCLC) of the same molecule?
The TGI was 10.8 µM.

And the GI50 (NCI-H460 lung)?
The GI50 was 13.2 µM.

What about the TGI (NCI-H460 lung) of the same molecule?
Its TGI is 26.8 µM.

What about the GI50 (COLO 205 colon) of the same molecule?
Its GI50 is 6 µM.

What about the TGI (COLO 205 colon) of the same molecule?
The TGI was 17.3 µM.

What about the GI50 (SK-OV-3 ovarian) of the same molecule?
The GI50 was 16.6 µM.

And the TGI (SK-OV-3 ovarian)?
Its TGI is 30.2 µM.

And the GI50 (HL-60(TB) leukemia)?
The GI50 was 3.29 µM.

And the TGI (HL-60(TB) leukemia)?
The TGI was 11.2 µM.

And the GI50 (OVCAR-4 ovarian)?
Its GI50 is 10.5 µM.

What about the TGI (OVCAR-4 ovarian) of the same molecule?
The TGI was 22.4 µM.

What about the GI50 (UACC-62 melanoma) of the same molecule?
The GI50 was 2.05 µM.

What about the TGI (UACC-62 melanoma) of the same molecule?
Its TGI is 4.97 µM.

And the GI50 (A498 renal)?
Its GI50 is 6.51 µM.

What about the TGI (A498 renal) of the same molecule?
The TGI was 18.8 µM.

And the GI50 (SW-620 colon)?
Its GI50 is 6.66 µM.

And the TGI (SW-620 colon)?
The TGI was 19.3 µM.

What about the GI50 (LOX IMVI melanoma) of the same molecule?
Its GI50 is 3.56 µM.

What about the TGI (LOX IMVI melanoma) of the same molecule?
The TGI was 11.5 µM.

And the GI50 (M14 melanoma)?
The GI50 was 6.94 µM.

What about the TGI (M14 melanoma) of the same molecule?
The TGI was 19.5 µM.

What about the GI50 (SNB-75 CNS) of the same molecule?
Its GI50 is 3.67 µM.

What about the TGI (SNB-75 CNS) of the same molecule?
The TGI was 18.1 µM.

And the GI50 (SNB-19 CNS)?
Its GI50 is 7.15 µM.

And the TGI (SNB-19 CNS)?
The TGI was 20 µM.

And the GI50 (RPMI-8226 leukemia)?
Its GI50 is 2.24 µM.

What about the TGI (RPMI-8226 leukemia) of the same molecule?
Its TGI is 12.6 µM.

And the GI50 (NCI-H522 lung)?
The GI50 was 2.3 µM.

And the TGI (NCI-H522 lung)?
The TGI was 4.95 µM.

What about the GI50 (KM12 colon) of the same molecule?
Its GI50 is 5.98 µM.

What about the TGI (KM12 colon) of the same molecule?
The TGI was 18.8 µM.

What about the GI50 (UACC-257 melanoma) of the same molecule?
The GI50 was 4.38 µM.

What about the TGI (UACC-257 melanoma) of the same molecule?
Its TGI is 15.9 µM.

And the GI50 (DMS 273 small cell lung)?
Its GI50 is 4.9 µM.

What about the TGI (DMS 273 small cell lung) of the same molecule?
The TGI was 16.8 µM.

What about the GI50 (SNB-78 CNS) of the same molecule?
Its GI50 is 6.25 µM.

And the TGI (SNB-78 CNS)?
The TGI was 21.4 µM.

What about the GI50 (CCRF-CEM leukemia) of the same molecule?
Its GI50 is 3.27 µM.

What about the TGI (CCRF-CEM leukemia) of the same molecule?
Its TGI is 10.9 µM.

And the GI50 (UO-31 renal)?
Its GI50 is 10.6 µM.

And the TGI (UO-31 renal)?
Its TGI is 22.4 µM.

What about the GI50 (U251 CNS) of the same molecule?
The GI50 was 2.21 µM.

And the TGI (U251 CNS)?
Its TGI is 6.09 µM.

And the GI50 (M19-MEL melanoma)?
Its GI50 is 9.31 µM.

What about the TGI (M19-MEL melanoma) of the same molecule?
The TGI was 21.3 µM.

What about the GI50 (786-0 renal) of the same molecule?
The GI50 was 4.58 µM.

What about the TGI (786-0 renal) of the same molecule?
Its TGI is 17.1 µM.

And the GI50 (SK-MEL-28 melanoma)?
The GI50 was 3.82 µM.

And the TGI (SK-MEL-28 melanoma)?
The TGI was 12.9 µM.

What about the GI50 (RXF 393 renal) of the same molecule?
Its GI50 is 2.7 µM.

What about the TGI (RXF 393 renal) of the same molecule?
Its TGI is 9.01 µM.

What about the GI50 (DMS 114 small cell lung) of the same molecule?
Its GI50 is 3.93 µM.

What about the TGI (DMS 114 small cell lung) of the same molecule?
Its TGI is 13.9 µM.

And the GI50 (SF-539 CNS)?
Its GI50 is 4.36 µM.

And the TGI (SF-539 CNS)?
The TGI was 16.6 µM.

What about the GI50 (SK-MEL-2 melanoma) of the same molecule?
The GI50 was 2.45 µM.

And the TGI (SK-MEL-2 melanoma)?
Its TGI is 7.47 µM.

What about the GI50 (TK-10 renal) of the same molecule?
The GI50 was 16 µM.

What about the TGI (TK-10 renal) of the same molecule?
The TGI was 29.4 µM.

What about the GI50 (HCT-15 colon) of the same molecule?
The GI50 was 5.69 µM.

And the TGI (HCT-15 colon)?
Its TGI is 18.7 µM.

And the GI50 (HT29 colon)?
The GI50 was 6.83 µM.

What about the TGI (HT29 colon) of the same molecule?
Its TGI is 20 µM.

And the GI50 (EKVX NSCLC)?
Its GI50 is 10.4 µM.

What about the TGI (EKVX NSCLC) of the same molecule?
The TGI was 22.2 µM.

And the GI50 (SF-268 CNS)?
The GI50 was 4.11 µM.

What about the TGI (SF-268 CNS) of the same molecule?
Its TGI is 15.4 µM.

What about the GI50 (A549 NSCLC) of the same molecule?
Its GI50 is 17.5 µM.

What about the TGI (A549 NSCLC) of the same molecule?
Its TGI is 34.3 µM.

And the GI50 (XF 498 CNS)?
The GI50 was 4.9 µM.

And the TGI (XF 498 CNS)?
The TGI was 16.5 µM.

What about the GI50 (NCI-H226 lung) of the same molecule?
Its GI50 is 10.1 µM.

What about the TGI (NCI-H226 lung) of the same molecule?
The TGI was 22.4 µM.

What about the GI50 (MOLT-4 leukemia) of the same molecule?
The GI50 was 2.96 µM.

What about the TGI (MOLT-4 leukemia) of the same molecule?
Its TGI is 10.5 µM.

And the GI50 (SN12C renal)?
Its GI50 is 7.41 µM.

And the TGI (SN12C renal)?
Its TGI is 19.9 µM.

What about the GI50 (MALME-3M melanoma) of the same molecule?
Its GI50 is 5.2 µM.

And the TGI (MALME-3M melanoma)?
The TGI was 18.1 µM.

What about the GI50 (CAKI-1 renal) of the same molecule?
Its GI50 is 11 µM.

What about the TGI (CAKI-1 renal) of the same molecule?
Its TGI is 23.2 µM.

And the GI50 (KM20L2 colon)?
Its GI50 is 11.1 µM.

What about the TGI (KM20L2 colon) of the same molecule?
The TGI was 23.2 µM.

What about the GI50 (OVCAR-8 ovarian) of the same molecule?
Its GI50 is 4.46 µM.

And the TGI (OVCAR-8 ovarian)?
The TGI was 16.6 µM.

And the GI50 (OVCAR-5 ovarian)?
The GI50 was 13.3 µM.

What about the TGI (OVCAR-5 ovarian) of the same molecule?
The TGI was 26.2 µM.

And the GI50 (SK-MEL-5 melanoma)?
The GI50 was 6.88 µM.

And the TGI (SK-MEL-5 melanoma)?
Its TGI is 19.4 µM.

And the GI50 (ACHN renal)?
The GI50 was 7.17 µM.

And the TGI (ACHN renal)?
The TGI was 19.9 µM.

And the GI50 (HOP-62 NSCLC)?
The GI50 was 14.5 µM.

And the TGI (HOP-62 NSCLC)?
The TGI was 27.5 µM.

And the GI50 (K-562 leukemia)?
The GI50 was 3.66 µM.

What about the TGI (K-562 leukemia) of the same molecule?
Its TGI is 19.7 µM.

What about the GI50 (IGROV1 ovarian) of the same molecule?
Its GI50 is 7.61 µM.

What about the TGI (IGROV1 ovarian) of the same molecule?
The TGI was 20.3 µM.

What about the GI50 (OVCAR-3 ovarian) of the same molecule?
The GI50 was 4.91 µM.

What about the TGI (OVCAR-3 ovarian) of the same molecule?
Its TGI is 17 µM.

And the GI50 (DLD-1 colon)?
Its GI50 is 5.37 µM.

What about the TGI (DLD-1 colon) of the same molecule?
The TGI was 17.6 µM.

And the GI50 (SF-295 CNS)?
Its GI50 is 12.5 µM.

What about the TGI (SF-295 CNS) of the same molecule?
The TGI was 25 µM.

From PubChem BioAssay (NCI)
